Entries after “also recorded” stand apart in the source; their conditions may differ.
What was measured:
K105 cells [1] = assay: Effect on K105 cells already adherent to chondroadherin, light microscopy time study (FIG. 7, 9, 10); format: cell-based, human; settings: for spreading and aggregation or detaching of k105 cells adherent to chondroadherin (FIG. 10): peptide, anti β1 antibody or 5 mM EDTA added after 30 min, light microscopy after 1 and 3 hours; for spreading, migration and aggregation of k105 cells adherent to chondroadherin: peptide 250 μg/ml added after 30 min adhesion, light microscopy after 1, 3 and 20 hours
Method: (§1) To test cell binding, the chondrosarcoma cells or bovine chondrocytes were suspended in PBS containing 0.1% BSA, 25 U/ml collagenase and added to the wells (50,000/well), in the absence or presence of various peptide pools or the synthetic peptides (200, 100, 50, 25, 12.5 μg/ml). Non-adherent cells were removed after 1 hour and adhesion was determined by measuring lysosomal N-acetylglucosaminidase (12). Adhesion and spreading was visualized by light microscopy. In the time studies, k105 cells were allowed to adhere for 30 minutes, unbound cells were removed and medium without serum supplemented with or without peptides (250 μg/ml), β1 integrin antibody (clone P4C10, Gibco BRL), EDTA (5 mM) was added. Cell morphology was visualized by light microscopy after 1, 3 and 20 hours.
(§2) Tissue culture dishes were coated with 5 μg/ml chondroadherin expressed in E. coli and blocked for non-specific binding with BSA. The k105 cells were suspended in PBS containing 0.1% BSA, and added to the wells (50,000/well). Nonadherent cells were removed after 30 min by washing, plain medium without serum with or without peptides (250 μg/ml) was added and bound cells were visualized by light microscopy after 1, 3 and 20 hours.
as §2, with “The” for “The k105”, “hours. […] The activity for integrin binding is located in the C-terminal eight residues of the sequence involving the WLEAK (SEQ ID No. 1) sequence.” for “hours.”
as §2, with “washing, peptide, anti β1 antibody, 5 mM EDTA or” for “washing,”, “serum” for “serum with or without peptides (250 μg/ml)”, “1 and” for “1,”, “3” for “3 and 20”

bovine chondrocytes = assay: Adhesion of bovine chondrocytes to human chondroadherin with or without cell binding peptides (FIG. 6); format: cell-based; settings: peptide 250 μg/ml, 1 hour at 37° C., 100,000 cells/well
Method: Bovine chondrocytes were isolated by collagenase (CLS1; Worthington Biochemical Corp., Lakewood, N.J.) digestion of articular cartilage from 4-6 month old calves as described (10). Briefly, cartilage slices were digested for 16 hours with collagenase in EBSS (Earle's balanced salt solution, GIBCO BRL Gaithersburg, Md.). The cells were filtered through a 100 μm nylon filter, washed three times in PBS containing 0.2% BSA (SERVA).
(§3) To test cell binding, the chondrosarcoma cells or bovine chondrocytes were suspended in PBS containing 0.1% BSA, 25 U/ml collagenase and added to the wells (50,000/well), in the absence or presence of various peptide pools or the synthetic peptides (200, 100, 50, 25, 12.5 μg/ml). Non-adherent cells were removed after 1 hour and adhesion was determined by measuring lysosomal N-acetylglucosaminidase (12). Adhesion and spreading was visualized by light microscopy. […]
Tissue culture dishes were coated with 5 μg/ml chondroadherin expressed in E. coli or collagen type II and blocked for non-specific binding with BSA. […] Adhesion was determined by analyzing lysosomal hexosaminidase. Adhesion is expressed as number of cells, 100,000 cells/well was seeded. […]

K105 cells [2] = assay: Adhesion of K105 cells to chondroadherin in the presence of synthetic peptide (FIG. 3, 5A-5B, 13); format: cell-based, human; settings: 1 hour at 37° C.; for adhesion of k105 cells to chondroadherin in the presence of peptide: peptide 200, 100, 50, 25, 12.5 μg/ml
Method: Human cells (K9) originating from a human chondrosarcoma were a kind gift from Drs. Sven Inerot and Anders Lindahl, The Salgrenska University Hospital Gothenburg, Sweden. The K9 cells were cultured in Dulbeccos Modified Eagle Medium: Nutrient Mixture F12 (DMEM/F12 1:1) with GLUTAMAX I, supplemented with 10% fetal calf serum, 25 μg/ml ascorbic acid, 50 IU of penicillin and 50 μg/ml streptomycin (Life Technologies, Inc.). A different human cells line (K105) originating from a human chondrosarcoma was a kind gift from Dr. Sven Inerot, The Salgrenska University Hospital, Gothenburg, Sweden. The K105 cells were cultured in a mix of 40% Dulbeccos Modified Eagle Medium, 40% Minimum Essential Media (MEM) alpha Medium, 10% Nutrient Mixture F1 supplemented with 100 nM hydrocortisone, 100 ng/ml insulin, 10% fetal calf serum, 25 μg/ml ascorbic acid, 50 IU of penicillin and 50 μg/ml streptomycin (Life Technologies, Inc.). To harvest cells, culture dishes were rinsed three times with Ca^2+/Mg^2+-free PBS and the cells were incubated with 0.5% trypsin and 1 mM EDTA for 5 min. Detached cells were suspended in PBS containing 1 mg/ml trypsin inhibitor (Sigma) and then washed in PBS. To remove membrane-bound collagens the cells were treated with collagenase 100 U/ml (CLSPA; Worthington Biochemical Corp., Lakewood, N.J.) in PBS, 30 min. 37° C. and then washed in PBS.
(§4) Tissue culture 48-wells dishes (Nunclon, Nunc, Denmark) were coated overnight with 5 μg/ml chondroadherin in 4M Guanidine-HCl, 50 mM sodium acetate, pH 5.8, or for native protein in PBS. Alternatively coating was with 5 μg/ml collagen type II in PBS followed by after-coating with 0.5% BSA in PBS for 3 hours. Collagen type II was isolated from bovine nasal cartilage by pepsin digestion (11). Bacterially expressed chondroadherin was isolated as described above. Recombinant chondroadherin expressed in EBNA cell was cloned and purified as described elsewhere (8).
as §1
Study design: Tissue culture dishes (48-wells) were coated with 5 μg/ml chondroadherin expressed in E. coli and blocked for non-specific binding with BSA. […] were suspended in PBS containing 0.1% BSA, 25 U/ml collagenase and added to the wells (50,000/well) in the presence of synthetic peptide to be tested and allowed to adhere for 1 hour at 37° C. Nonadherent cells were removed by washing, and adhesion was determined by analyzing lysosomal hexosaminidase.
A 12-mer peptide (1947.01) plus an N-terminal cysteine (CQLRGLRRWLEAK) (SEQ ID NO. 3) representing the candidate sequence identified by mass spectrometry were synthesized and its ability to inhibit cell adhesion was determined. Tissue culture dishes were coated with 5 μg/ml chondroadherin expressed in E. coli and blocked for non-specific binding with BSA. The cells were suspended in PBS containing 0.1% BSA, 25 U/ml collagenase and added to the wells (50,000/well) in the presence of synthetic peptide (200, 100, 50, 25, 12.5 μg/ml) and allowed to adhere for 1 hour at 37° C. Nonadherent cells were removed by washing, and adhesion was determined by analyzing lysosomal hexosaminidase. […]

K105 cells [3] = assay: Adhesion of K105 cells to collagen type II in the presence of synthetic peptide (FIG. 5C-5D); format: cell-based, human; settings: peptide 250 μg/ml, 1 hour at 37° C.
Method: as §4, §3
Tissue culture dishes were coated with 5 μg/ml chondroadherin expressed in E. coli or collagen type II and blocked for non-specific binding with BSA. […] Spreading was visualized by light microscopy, and adhesion was determined by analyzing lysosomal hexosaminidase. Adhesion is expressed as number of cells where the data represent the average of two wells. […]

K105 cells [4] = assay: Adhesion of K105 cells to the coated cell binding peptides (FIG. 8); format: cell-based, human
Method: Tissue culture dishes were coated with 33 μg/ml (20 µM) peptide solution. The cells (50,000/well) were suspended in PBS containing 0.1% BSA, 25 U/ml collagenase and added to the wells in the presence or absence of synthetic peptide (250 μg/ml) and allowed to adhere for 1 hour at 37° C. Nonadherent cells were removed by washing. Spreading was visualized by light microscopy.

Compound: O=C(O)CN(CCN(CC(=O)O)CC(=O)O)CC(=O)O [EDTA, reference compound]
- spreading and aggregation or detaching of k105 cells adherent to chondroadherin (FIG. 10) (K105 cells [1]): cells detaching

Compound: H-LRRWLEAK-OH (listed as Homo sapiens) [SEQ ID No. 2]
- spreading, migration and aggregation of k105 cells adherent to chondroadherin (K105 cells [1]): prevented spreading and induced cells to form aggregate

Compound: H-QLRGLRRWLEAK-OH (listed as Homo sapiens) [SEQ ID No. 3]
- spreading, migration and aggregation of k105 cells adherent to chondroadherin (K105 cells [1]): prevented spreading and induced cells to form aggregates

Compound: CQLRGLRRWLEAK (N-terminal cysteine; listed as Homo sapiens) [12-mer peptide plus an N-terminal cysteine]
- spreading, migration and aggregation of k105 cells adherent to chondroadherin (K105 cells [1]): stimulated the cells to form aggregate; also recorded: prevented spreading and induced cells to form aggregate
- spreading and aggregation or detaching of k105 cells adherent to chondroadherin (FIG. 10) (K105 cells [1]): prevented spreading and the cells formed aggregate
- bovine chondrocyte adhesion to chondroadherin in the presence of peptide (bovine chondrocytes): decreased
- k105 cell adhesion to chondroadherin in the presence of peptide (K105 cells [2]; peptide 250 μg/ml): decreased
- adhesion of k105 cells to chondroadherin in the presence of peptide (K105 cells [2]): able to inhibit
- adhesion of k105 cells to chondroadherin in the presence of peptide (K105 cells [2]; listed as 12-mer peptide): decreased in a dose dependent manner
- k105 cell adhesion to collagen type II in the presence of peptide (K105 cells [3]): not significantly affected
- adhesion and shape of k105 cells plated on the peptide (K105 cells [4]; dishes coated with 33 μg/ml peptide, 1 hour at 37° C.): adhere and remain round
- inhibition of k105 adhesion to the coated peptide by the same peptide in solution (K105 cells [4]; peptide in solution 250 μg/ml): inhibited

Compound: Ac-[CQLRGLRRWLEAKASRPDATC]-NH2 (Ac-CQLRGLRRWLEAKASRPDATC-NH2; also: cyclised (brackets), bond type not given here; listed as Homo sapiens) [SEQ ID No. 12]
- inhibitory effect on K105 cell adhesion to chondroadherin (Example II, FIG. 13) (K105 cells [2]): inhibitory effect

Compound: QLRGLRRW (listed as Homo sapiens)
- spreading, migration and aggregation of k105 cells adherent to chondroadherin (K105 cells [1]): no effect

— patent US8158577B2, “Modulation of cartilage homeostasis by active domains of cell binding extracellular matrix molecules” (priority 2004, dated 2012)
